Results from ChEMBL document CHEMBL4837247, “Discovery of a Potent Dual SLK/STK10 Inhibitor Based on a Maleimide Scaffold” (J Med Chem, 2021).

Target: Serine/threonine-protein kinase 10 (Homo sapiens, UniProt O94804)
Assay: Inhibition of STK10 (unknown origin) expressed in Sf9 cells assessed as transfer of radiolabelled phosphate group from ATP by reaction biology method

Sequence of Serine/threonine-protein kinase 10 (O94804 whole entry): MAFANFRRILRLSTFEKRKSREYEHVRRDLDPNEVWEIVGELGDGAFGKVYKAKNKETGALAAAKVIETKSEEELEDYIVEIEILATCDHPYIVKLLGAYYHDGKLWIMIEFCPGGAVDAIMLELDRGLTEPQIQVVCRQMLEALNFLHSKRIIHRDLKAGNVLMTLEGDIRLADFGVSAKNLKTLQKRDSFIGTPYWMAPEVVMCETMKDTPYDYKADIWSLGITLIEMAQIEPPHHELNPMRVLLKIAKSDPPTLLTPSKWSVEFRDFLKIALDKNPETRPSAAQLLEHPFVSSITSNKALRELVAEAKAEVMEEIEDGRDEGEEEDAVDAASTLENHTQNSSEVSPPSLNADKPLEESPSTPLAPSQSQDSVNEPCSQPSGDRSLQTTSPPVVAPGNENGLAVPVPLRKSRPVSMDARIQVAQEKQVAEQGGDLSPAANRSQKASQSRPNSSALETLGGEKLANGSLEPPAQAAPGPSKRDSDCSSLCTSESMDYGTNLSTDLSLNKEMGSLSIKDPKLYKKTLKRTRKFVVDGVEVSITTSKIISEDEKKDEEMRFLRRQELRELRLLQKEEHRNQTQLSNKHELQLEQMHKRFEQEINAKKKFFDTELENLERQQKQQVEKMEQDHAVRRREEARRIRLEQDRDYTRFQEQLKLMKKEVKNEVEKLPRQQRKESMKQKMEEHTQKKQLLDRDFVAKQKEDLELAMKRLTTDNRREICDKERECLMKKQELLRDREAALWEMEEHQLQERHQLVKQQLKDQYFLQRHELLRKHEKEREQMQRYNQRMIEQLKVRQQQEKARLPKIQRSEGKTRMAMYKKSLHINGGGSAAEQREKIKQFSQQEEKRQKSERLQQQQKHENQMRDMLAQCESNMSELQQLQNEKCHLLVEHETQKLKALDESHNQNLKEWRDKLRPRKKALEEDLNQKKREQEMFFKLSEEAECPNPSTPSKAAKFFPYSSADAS

IC50: 99 nM
Structure (SMILES): Cn1cc(C2=C(c3cn(CCCSC(=N)N)c4ccccc34)C(=O)NC2=O)c2ccccc21 [BISINDOLYLMALEIMIDE IX]
